Experimental data as given in PMC6935173, “Characterization of a vacuolar sucrose transporter, HbSUT5, from Hevea brasiliensis: involvement in latex production through regulation of intracellular sucrose transport in the bark and laticifers” (BMC Plant Biology, 2019).

T1: HbSUT5 (Hevea brasiliensis, UniProt A0T058)
T1 construct: gene SUT5; ORF primers give start MAIPQ
T1 sequence (A0T058 1-498): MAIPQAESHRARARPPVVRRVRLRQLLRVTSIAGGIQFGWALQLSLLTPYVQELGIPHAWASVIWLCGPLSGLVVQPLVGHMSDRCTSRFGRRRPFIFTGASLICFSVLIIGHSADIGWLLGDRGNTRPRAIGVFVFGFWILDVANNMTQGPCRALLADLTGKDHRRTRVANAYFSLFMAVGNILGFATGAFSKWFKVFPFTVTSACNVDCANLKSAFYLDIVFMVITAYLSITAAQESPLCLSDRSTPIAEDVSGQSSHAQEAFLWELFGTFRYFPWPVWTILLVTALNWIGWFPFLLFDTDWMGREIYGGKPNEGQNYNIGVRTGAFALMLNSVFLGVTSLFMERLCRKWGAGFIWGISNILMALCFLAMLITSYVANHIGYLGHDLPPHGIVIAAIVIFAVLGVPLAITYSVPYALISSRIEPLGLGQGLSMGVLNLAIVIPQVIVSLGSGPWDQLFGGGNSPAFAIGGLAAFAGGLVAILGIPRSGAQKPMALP

B1: HbSUT5 (Hevea brasiliensis) (protein)
chain: MAIPQAESHRARARPPVVRRVRLRQLLRVTSIAGGIQFGWALQLSLLTPYVQELGIPHAWASVIWLCGPLSGLVVQPLVGHMSDRCTSRFGRRRPFIFTGASLICFSVLIIGHSADIGWLLGDRGNTRPRAIGVFVFGFWILDVANNMTQGPCRALLADLTGKDHRRTRVANAYFSLFMAVGNILGFATGAFSKWFKVFPFTVTSACNVDCANLKSAFYLDIVFMVITAYLSITAAQESPLCLSDRSTPIAEDVSGQSSHAQEAFLWELFGTFRYFPWPVWTILLVTALNWIGWFPFLLFDTDWMGREIYGGKPNEGQNYNIGVRTGAFALMLNSVFLGVTSLFMERLCRKWGAGFIWGISNILMALCFLAMLITSYVANHIGYLGHDLPPHGIVIAAIVIFAVLGVPLAITYSVPYALISSRIEPLGLGQGLSMGVLNLAIVIPQVIVSLGSGPWDQLFGGGNSPAFAIGGLAAFAGGLVAILGIPRSGAQKPMALP
notes: ORF primers give start MAIPQ

Experiments:
[1] = target: T1, HbSUT5; assay: competition with […]-sucrose uptake in yeast SEY6210; type: cell-based
[2] = substrate: OC[C@H]1O[C@@](CO)(O[C@H]2O[C@H](CO)[C@@H](O)[C@H](O)[C@H]2O)[C@@H](O)[C@@H]1O; assay: cells, lysate or membranes; type: cell-based, Hevea brasiliensis; settings: pH 5.5, 0.5-8 mM sucrose, labelled compound, H+ symport, whole yeast cells

Molecule | activity at 10000 µM [1] | Km [2]
OC[C@H]1O[C@H](O[C@H]2[C@H](O)[C@@H](O)C(O)O[C@@H]2CO)[C@H](O)[C@@H](O)[C@@H]1O (some centres unmarked) [Maltose] | 44 ± 3.4% | 
B1 |  | 2030 µM
